Assay results as given in patent US20250304620A1, “ANTIMICROBIAL PEPTIDE AND APPLICATION THEREOF” (priority 2023, published 2025).
Like-named read-outs stand apart in the source and are kept apart here. Marks after values point to notes of the source that are not given here. Non-standard residues stand in square brackets, D forms with d. PEG2000 = polyethylene glycol 2000, conjugated to the N-terminus; PEG4000 = polyethylene glycol 4000, conjugated to the C-terminus; 2Nal = N[C@@H](Cc1ccc2ccccc2c1)C(=O)O

Experiments:
[1] = tested on: Methicillin-resistant Staphylococcus aureus (MRSA); assay type: in vivo, ICR mice; conditions: 0.1 mL twice a day for 4 days, mouse back skin infection
Protocol: (§1) Both female and male ICR mice were used in the test, half of the female and male mice were taken and randomly assigned into groups, with 10 mice in each group, and kept in separate cages. The mice were divided into a blank group, a model group, a positive control Methicillin group, and topical formulation groups of AMPs LV-1 to LV-30. Suspensions of Methicillin-sensitive Staphylococcus aureus (NRS 384) and Methicillin-resistant Staphylococcus aureus (MRSA) were prepared, and their concentrations were adjusted to a concentration of 5×10^6 CFU/mL for subsequent use. Hair on backs of the mice was shaved with a shaver, wound was created on back skin of each mouse using a biopsy punch, and the wound was then infected with Methicillin-sensitive Staphylococcus aureus and Methicillin-resistant Staphylococcus aureus (0.1 mL, 5×10^6 CFU/mL) to establish infection models. Except for the blank group and the model group, all other groups received corresponding topical formulations applied directly to the infected areas, with a dose of 0.1 mL, twice a day for 4 consecutive days. On the day following the final administration, skin from the infected sites of each group was aseptically collected, and an antibacterial rate was calculated.

[2] = tested on: Methicillin-sensitive Staphylococcus aureus (NRS 384); assay type: in vivo, ICR mice; conditions: 0.1 mL twice a day for 4 days, mouse back skin infection
Protocol: as §1

[3] = tested on: Pseudomonas aeruginosa ATCC 27853; experiment: Injectable formulations on mice infected with peritonitis; assay type: in vivo, ICR mice; conditions: 1 mg/kg via tail vein, twice a day for 3 days, n = 10; for Average survival times (Days): observed for 14 d
Summary of the method: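 Survival readout: deaths and survival time tracked for 14 d. Treatment was tail-vein injection by body weight, twice a day for 3 consecutive days, starting right after intraperitoneal challenge with 0.2 mL of 1×10^9 CFU/mL P. aeruginosa ATCC 27853 in male and female ICR mice.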

[4] = tested on: Salmonella typhimurium ATCC 14028; assay type: cell-based
Summary of the method: (§2)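 Following CLSI standards, peptides are serially diluted twofold in a microdilution setup against each strain. The MIC is then recorded. The whole experiment is run five times in parallel.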

[5] = tested on: Escherichia coli ATCC 25922; assay type: cell-based
Summary of the method: as §2

[6] = tested on: Serratia marcescens ATCC 29021; assay type: cell-based
Summary of the method: as §2

[7] = tested on: Bacillus subtilis ATCC 6633; assay type: cell-based
Summary of the method: as §2

[8] = tested on: Candida albicans ATCC MYA-2876; assay type: cell-based
Summary of the method: as §2

[9] = tested on: Candida tropicalis ATCC 750; assay type: cell-based
Summary of the method: as §2

Enterococcus ATCC 29212 = assay type: cell-based
Summary of the method: as §2

[10] = tested on: Staphylococcus aureus ATCC 25923; assay type: cell-based
Summary of the method: as §2

[11] = tested on: Klebsiella pneumoniae ATCC 700603; assay type: cell-based
Summary of the method: as §2

[12] = tested on: Pseudomonas aeruginosa ATCC 27853; assay type: cell-based
Summary of the method: as §2

Candida utilis ATCC 9950 = assay type: cell-based
Summary of the method: as §2

Substance	Inhibition rate against Methicillin-resistant Staphylococcus aureus (%) ([1]; topical formulation 0.2 mg/mL)	Inhibition rate against Methicillin-resistant Staphylococcus aureus (%) ([1]; topical formulation 1 mg/mL)	Inhibition rate against Methicillin-resistant Staphylococcus aureus (%) ([1]; topical formulation 5 mg/mL)	Inhibition rate against Methicillin-sensitive Staphylococcus aureus (%) ([2]; topical formulation 0.2 mg/mL)	Inhibition rate against Methicillin-sensitive Staphylococcus aureus (%) ([2]; topical formulation 1 mg/mL)	Inhibition rate against Methicillin-sensitive Staphylococcus aureus (%) ([2]; topical formulation 5 mg/mL)	Number of mice that died on each day after infection: day 1 [3] [Mouse]	Number of mice that died on each day after infection: day 2 [3] [Mouse]	Number of mice that died on each day after infection: day 3 [3] [Mouse]	Number of mice that died on each day after infection: day 4 [3] [Mouse]	Number of mice that died on each day after infection: day 5 [3] [Mouse]	Average survival times (Days) [3]	MIC Salmonella typhimurium ATCC 14028 [4] [µg/mL]	MIC Escherichia coli ATCC 25922 [5] [µg/mL]	MIC Serratia marcescens ATCC 29021 [6] [µg/mL]	MIC Bacillus subtilis ATCC 6633 [7] [µg/mL]	MIC Candida albicans ATCC MYA-2876 [8] [µg/mL]	MIC Candida tropicalis ATCC 750 [9] [µg/mL]	MIC Enterococcus ATCC 29212 (Enterococcus ATCC 29212) [µg/mL]	MIC Staphylococcus aureus ATCC 25923 [10] [µg/mL]	other results
PEG2000-RKLLXRLKXRK-NH2 [LV-29] (PEG2000-RKLL[2Nal]RLK[2Nal]RK-NH2) [polyethylene glycol 2000 conjugated to N-terminal; X=3-(2-naphthyl)-alanine]	86.34	87.29	88.16	96.49	97.11	98.65	1	0	0	3	1	8.8** Days	4	1	4	4	8	4	8	2	MIC Klebsiella pneumoniae ATCC 700603 [11]: 4 µg/mL; MIC Pseudomonas aeruginosa ATCC 27853 [12]: 4 µg/mL; MIC Candida utilis ATCC 9950 (Candida utilis ATCC 9950): 4 µg/mL
Ac-RKLLXRLKXRK-PEG4000 [LV-30] (Ac-RKLL[2Nal]RLK[2Nal]RK-PEG4000) [polyethylene glycol 4000 conjugated to C-terminal; X=3-(2-naphthyl)-alanine]	86.10	87.85	88.93	96.07	96.91	98.24	1	1	0	1	1	9.6*** Days	2	2	8	2	8	8	4	2	MIC Klebsiella pneumoniae ATCC 700603 [11]: 8 µg/mL; MIC Pseudomonas aeruginosa ATCC 27853 [12]: 2 µg/mL; MIC Candida utilis ATCC 9950 (Candida utilis ATCC 9950): 8 µg/mL
